From ChEMBL document CHEMBL5291721, “A preclinical secondary pharmacology resource illuminates target-adverse drug reaction associations of marketed drugs” (Nat Commun, 2023) come the findings set out here.

Molecules are shown by their SMILES.

The target of assay [1] is Gamma-aminobutyric acid receptor subunit alpha-1 (Rattus norvegicus, UniProt P62813). Format: functional.
Assay [2] has as its target Glutamate receptor ionotropic, NMDA 1 (Rattus norvegicus, UniProt P35439).
A further assay deals with Melanocortin receptor 3 (Homo sapiens, UniProt P41968).
Assay [3] has as its target T1, Equilibrative nucleoside transporter 1 (Homo sapiens, UniProt Q99808).
T1 sequence (Q99808 whole entry): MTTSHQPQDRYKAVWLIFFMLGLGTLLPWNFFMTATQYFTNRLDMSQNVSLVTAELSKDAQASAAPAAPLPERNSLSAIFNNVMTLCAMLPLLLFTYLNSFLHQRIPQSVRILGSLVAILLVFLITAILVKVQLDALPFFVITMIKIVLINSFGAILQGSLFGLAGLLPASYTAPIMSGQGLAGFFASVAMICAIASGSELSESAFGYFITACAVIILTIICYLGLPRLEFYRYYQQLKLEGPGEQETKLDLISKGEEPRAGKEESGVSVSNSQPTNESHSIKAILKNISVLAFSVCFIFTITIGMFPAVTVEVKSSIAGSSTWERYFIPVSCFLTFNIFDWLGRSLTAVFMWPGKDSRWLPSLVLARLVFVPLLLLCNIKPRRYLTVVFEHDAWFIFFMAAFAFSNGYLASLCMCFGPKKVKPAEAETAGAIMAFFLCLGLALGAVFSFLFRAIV

Assay [4] has as its target T2, Alpha-1A adrenergic receptor (Homo sapiens, UniProt P35348).
T2 sequence (P35348 whole entry): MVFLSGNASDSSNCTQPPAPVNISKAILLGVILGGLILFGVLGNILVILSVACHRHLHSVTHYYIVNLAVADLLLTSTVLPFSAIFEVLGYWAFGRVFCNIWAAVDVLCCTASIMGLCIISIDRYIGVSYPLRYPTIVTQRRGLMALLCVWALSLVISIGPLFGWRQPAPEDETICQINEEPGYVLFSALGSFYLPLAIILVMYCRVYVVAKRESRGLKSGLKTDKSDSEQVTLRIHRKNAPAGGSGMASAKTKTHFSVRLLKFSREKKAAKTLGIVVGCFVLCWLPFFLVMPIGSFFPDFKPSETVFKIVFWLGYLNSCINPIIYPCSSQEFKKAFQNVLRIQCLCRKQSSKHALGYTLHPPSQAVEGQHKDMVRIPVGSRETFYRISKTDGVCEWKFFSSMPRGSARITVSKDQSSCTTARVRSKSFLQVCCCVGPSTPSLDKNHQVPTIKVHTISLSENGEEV
Format: functional, cell-based.

Assay [5] deals with Kappa-type opioid receptor (Homo sapiens, UniProt P41145).
The target of the next assay is Motilin receptor (Homo sapiens, UniProt O43193).
For assay [6], the target named is cGMP-inhibited 3',5'-cyclic phosphodiesterase 3A (Homo sapiens, UniProt Q14432). The format is functional.
The target in assay [7] is T3, 5-hydroxytryptamine receptor 2C (Homo sapiens, UniProt P28335).
T3 sequence (P28335 whole entry): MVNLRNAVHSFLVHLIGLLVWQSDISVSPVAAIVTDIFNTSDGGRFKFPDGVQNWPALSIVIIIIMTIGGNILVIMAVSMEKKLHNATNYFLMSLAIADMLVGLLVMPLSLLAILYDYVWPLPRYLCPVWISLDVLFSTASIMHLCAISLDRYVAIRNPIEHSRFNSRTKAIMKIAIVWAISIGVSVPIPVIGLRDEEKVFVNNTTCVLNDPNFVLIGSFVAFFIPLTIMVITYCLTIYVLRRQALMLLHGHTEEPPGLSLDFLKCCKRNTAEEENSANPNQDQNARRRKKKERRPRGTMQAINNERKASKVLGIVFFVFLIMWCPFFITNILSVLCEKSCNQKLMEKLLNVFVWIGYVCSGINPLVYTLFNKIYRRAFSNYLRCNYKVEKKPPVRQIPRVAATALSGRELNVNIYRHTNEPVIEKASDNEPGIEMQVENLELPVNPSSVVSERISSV

Assay [8] deals with T4, 5-hydroxytryptamine receptor 1A (Homo sapiens, UniProt P08908).
T4 sequence (P08908 whole entry): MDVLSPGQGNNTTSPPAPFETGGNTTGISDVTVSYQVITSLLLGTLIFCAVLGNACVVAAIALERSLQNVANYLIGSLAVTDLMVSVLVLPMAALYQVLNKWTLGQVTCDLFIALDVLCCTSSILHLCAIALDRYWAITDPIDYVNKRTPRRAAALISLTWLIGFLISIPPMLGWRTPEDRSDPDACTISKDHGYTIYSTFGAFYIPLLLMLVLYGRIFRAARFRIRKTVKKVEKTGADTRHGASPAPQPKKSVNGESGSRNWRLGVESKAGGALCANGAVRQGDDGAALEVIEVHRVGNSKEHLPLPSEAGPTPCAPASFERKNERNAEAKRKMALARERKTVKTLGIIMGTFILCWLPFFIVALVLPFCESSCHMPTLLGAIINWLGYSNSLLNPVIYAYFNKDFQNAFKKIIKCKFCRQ
Format: functional, cell-based.
Further: assay procedure not described here.

Chain of cGMP-inhibited 3',5'-cyclic phosphodiesterase 3A (Q14432 whole entry): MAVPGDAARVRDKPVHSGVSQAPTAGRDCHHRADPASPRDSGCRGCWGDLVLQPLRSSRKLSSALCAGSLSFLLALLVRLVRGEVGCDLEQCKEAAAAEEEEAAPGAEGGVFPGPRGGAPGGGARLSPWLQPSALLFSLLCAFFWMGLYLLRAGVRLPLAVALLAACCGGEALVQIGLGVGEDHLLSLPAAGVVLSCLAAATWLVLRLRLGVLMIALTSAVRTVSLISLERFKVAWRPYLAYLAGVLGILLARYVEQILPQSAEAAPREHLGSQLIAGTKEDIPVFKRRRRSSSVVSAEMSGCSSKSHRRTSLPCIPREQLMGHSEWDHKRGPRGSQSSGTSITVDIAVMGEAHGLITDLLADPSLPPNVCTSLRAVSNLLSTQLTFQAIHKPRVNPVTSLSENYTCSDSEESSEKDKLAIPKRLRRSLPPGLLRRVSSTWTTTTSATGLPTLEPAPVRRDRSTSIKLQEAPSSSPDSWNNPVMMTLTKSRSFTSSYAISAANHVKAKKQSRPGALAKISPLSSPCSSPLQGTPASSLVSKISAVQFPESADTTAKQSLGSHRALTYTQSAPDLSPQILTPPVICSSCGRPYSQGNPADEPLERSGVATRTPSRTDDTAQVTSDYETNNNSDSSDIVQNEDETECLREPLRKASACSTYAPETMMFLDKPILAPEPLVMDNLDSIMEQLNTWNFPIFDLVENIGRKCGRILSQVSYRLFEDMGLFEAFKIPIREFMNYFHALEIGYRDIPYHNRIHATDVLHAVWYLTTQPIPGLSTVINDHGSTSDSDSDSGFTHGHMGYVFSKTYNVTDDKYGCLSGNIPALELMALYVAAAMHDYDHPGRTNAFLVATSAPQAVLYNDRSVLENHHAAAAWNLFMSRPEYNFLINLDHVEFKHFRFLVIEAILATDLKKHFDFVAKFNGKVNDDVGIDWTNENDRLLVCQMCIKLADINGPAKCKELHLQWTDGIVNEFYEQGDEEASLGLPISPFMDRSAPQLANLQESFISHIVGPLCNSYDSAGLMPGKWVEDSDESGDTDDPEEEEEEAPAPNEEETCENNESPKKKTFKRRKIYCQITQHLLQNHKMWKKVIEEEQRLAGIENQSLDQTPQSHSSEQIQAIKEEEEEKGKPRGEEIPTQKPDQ
Chain of Melanocortin receptor 3 (P41968 whole entry): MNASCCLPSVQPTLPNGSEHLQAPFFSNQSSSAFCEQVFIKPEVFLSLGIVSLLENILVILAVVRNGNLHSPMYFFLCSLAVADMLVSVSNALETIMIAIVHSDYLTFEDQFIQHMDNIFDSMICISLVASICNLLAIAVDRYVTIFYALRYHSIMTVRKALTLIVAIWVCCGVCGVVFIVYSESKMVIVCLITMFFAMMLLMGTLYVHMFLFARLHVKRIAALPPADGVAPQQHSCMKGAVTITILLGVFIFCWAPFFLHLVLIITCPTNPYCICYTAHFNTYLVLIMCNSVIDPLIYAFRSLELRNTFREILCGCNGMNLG
Chain of Kappa-type opioid receptor (P41145 whole entry): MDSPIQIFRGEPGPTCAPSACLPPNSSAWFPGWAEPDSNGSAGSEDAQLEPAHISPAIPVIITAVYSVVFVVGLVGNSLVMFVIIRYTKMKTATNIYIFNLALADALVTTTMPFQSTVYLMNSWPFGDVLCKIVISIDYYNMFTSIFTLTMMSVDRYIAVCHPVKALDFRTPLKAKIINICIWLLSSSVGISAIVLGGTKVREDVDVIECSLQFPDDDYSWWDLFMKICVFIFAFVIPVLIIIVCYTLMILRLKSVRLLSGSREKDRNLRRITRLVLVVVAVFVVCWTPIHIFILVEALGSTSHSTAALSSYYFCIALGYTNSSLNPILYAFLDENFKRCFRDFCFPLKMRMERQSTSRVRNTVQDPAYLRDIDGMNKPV
Chain of Gamma-aminobutyric acid receptor subunit alpha-1 (P62813 whole entry): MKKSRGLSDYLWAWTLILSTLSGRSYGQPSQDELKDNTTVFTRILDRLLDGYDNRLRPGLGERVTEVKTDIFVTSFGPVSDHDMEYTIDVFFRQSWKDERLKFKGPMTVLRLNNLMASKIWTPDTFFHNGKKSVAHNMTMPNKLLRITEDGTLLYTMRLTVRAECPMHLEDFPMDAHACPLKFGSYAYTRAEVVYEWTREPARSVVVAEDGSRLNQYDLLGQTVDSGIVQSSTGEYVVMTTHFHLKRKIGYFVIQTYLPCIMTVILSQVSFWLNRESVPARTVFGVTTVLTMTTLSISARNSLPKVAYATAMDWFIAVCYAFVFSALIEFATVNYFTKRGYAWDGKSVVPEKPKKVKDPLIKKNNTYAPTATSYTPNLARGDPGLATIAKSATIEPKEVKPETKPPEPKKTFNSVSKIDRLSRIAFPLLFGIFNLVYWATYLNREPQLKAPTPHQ
Chain of Motilin receptor (O43193 whole entry): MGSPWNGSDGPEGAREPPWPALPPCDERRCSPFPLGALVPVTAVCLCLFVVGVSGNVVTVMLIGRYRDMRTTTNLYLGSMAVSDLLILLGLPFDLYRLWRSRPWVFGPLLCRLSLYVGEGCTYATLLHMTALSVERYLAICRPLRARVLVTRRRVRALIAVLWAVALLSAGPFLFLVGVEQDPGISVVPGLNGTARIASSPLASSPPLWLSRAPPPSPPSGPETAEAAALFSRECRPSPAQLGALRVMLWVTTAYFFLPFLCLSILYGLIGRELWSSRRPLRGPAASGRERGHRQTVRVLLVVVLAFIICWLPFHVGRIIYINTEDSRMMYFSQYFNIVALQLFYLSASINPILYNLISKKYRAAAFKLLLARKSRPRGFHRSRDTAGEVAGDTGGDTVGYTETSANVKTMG

`CNS(=O)(=O)Cc1ccc2[nH]cc(CCN(C)C)c2c1`: the half-maximal activity concentration (AC50) (in assay [1]; in assay [2]; at Melanocortin receptor 3; in [3]; in assay [4]; in assay [5]) was > 30 µM in each case. Further, the concentration at half-maximal activity (AC50) at Motilin receptor is > 10 µM; in assay [6], > 30 µM.

As to `Nc1nc(N)nc(-c2cc(Cl)ccc2Cl)n1` [IRSOGLADINE], the AC50 (on Melanocortin receptor 3; in [4]; at Motilin receptor; in assay [6]) was > 30 µM in each case.

Consider `CC(=O)O[C@H]1C[C@@H]2CC[C@@H]3[C@H](CC[C@@]4(C)[C@H]3C[C@H]([N+]3(C)CCCCC3)[C@@H]4OC(C)=O)[C@@]2(C)C[C@@H]1N1CCCCC1` [VECURONIUM], for which the AC50 (in [1]; in assay [2]; at Melanocortin receptor 3; in assay [7]; in assay [3]; in assay [4]) was > 30 µM in each case. Moreover, the AC50 (in assay [5]; on Motilin receptor; in assay [6]) was > 30 µM each time.

Turning to `CCCN(CCC)C(=O)C(CCC(=O)O)NC(=O)c1ccccc1` (centres undefined) [PROGLUMIDE], the AC50 in assay [1] is > 10 µM; in assay [2], > 10 µM; on Melanocortin receptor 3 it was > 30 µM; in [7] it was > 30 µM; in [3], > 30 µM; in assay [5], > 10 µM. Further, the figures for the AC50 (at Motilin receptor; in assay [8]; in assay [6]) were > 30 µM, > 10 µM and > 30 µM, respectively.

For `C[C@](N)(Cc1ccc(O)c(O)c1)C(=O)O` [METHYLDOPA], the AC50 in assay [1] is > 10 µM; in assay [2] it was > 10 µM; at Melanocortin receptor 3, > 10 µM; in [7] it was > 30 µM; in assay [3], > 10 µM; in [5] it was > 10 µM. Moreover, the AC50 is > 10 µM on Motilin receptor, > 10 µM in assay [8] and > 30 µM in assay [6].

As for `CC=CC(=O)N(CC)c1ccccc1C`, the concentration at half-maximal activity (AC50) was > 10 µM in assay [1]; > 10 µM in [2]; > 10 µM on Melanocortin receptor 3; > 30 µM in [7]; > 10 µM in [3]; > 30 µM in assay [4]. Moreover, the AC50 in assay [5] is > 10 µM; on Motilin receptor, > 10 µM; in [6], > 30 µM.

Take `O=C(NCCN1CCOCC1)c1ccc(Cl)cc1` [MOCLOBEMIDE]: the AC50 in [1] is > 10 µM; in [2] it was > 10 µM; at Melanocortin receptor 3, > 10 µM; in [7], > 30 µM; in [3], > 10 µM; in assay [5] it was > 10 µM. Moreover, the AC50 at Motilin receptor is > 10 µM; in assay [8], > 10 µM; in [6], > 30 µM.

As to `C[C@]12CC[C@H]3[C@@H](CCC4=CC(=O)CC[C@@]43C)[C@@H]1CC[C@@H]2O` [TESTOSTERONE], the AC50 in assay [1] is > 10 µM; in assay [2], > 10 µM; on Melanocortin receptor 3, > 10 µM; in assay [7], > 30 µM; in assay [3], > 10 µM; in assay [5] it was > 10 µM. The AC50 was > 10 µM on Motilin receptor, > 10 µM in assay [8] and > 30 µM in assay [6].

With `Cc1ccc(S(=O)(=O)NC(=O)NN2CC3CCCC3C2)cc1` (centres undefined) [GLICLAZIDE], the AC50 is > 10 µM in [1]; > 10 µM in assay [2]; > 10 µM at Melanocortin receptor 3; > 30 µM in [7]; > 10 µM in [3]; > 10 µM in assay [5]. Further, the half-maximal activity concentration (AC50) is > 10 µM on Motilin receptor, > 10 µM in assay [8] and > 30 µM in assay [6].

Turning to `CC(C)Cn1cnc2c(N)nc3ccccc3c21` [IMIQUIMOD], the half-maximal activity concentration (AC50) is > 10 µM in assay [1]; > 10 µM in assay [2]; > 30 µM on Melanocortin receptor 3; > 30 µM in [7]; > 30 µM in [3]; > 10 µM in assay [5]. The AC50 at Motilin receptor was > 10 µM; in [8], > 10 µM; in [6] it was > 30 µM.

Consider `CCOC(=O)OC(C)OC1=C(C(=O)Nc2ccccn2)N(C)S(=O)(=O)c2ccccc21` (centres undefined) [AMPIROXICAM], for which the AC50 (in assay [1]; in [2]; at Melanocortin receptor 3; in assay [7]; in assay [3]; in assay [4]) was > 30 µM in each case. For the same molecule, the half-maximal activity concentration (AC50) (in assay [5]; on Motilin receptor; in assay [6]) was > 30 µM each time.

For `CN1C(=O)OC(C)(C)C1=O` [TRIMETHADIONE], the AC50 is > 10 µM in [1]; > 10 µM in assay [2]; > 10 µM on Melanocortin receptor 3; > 30 µM in [7]; > 10 µM in [3]; > 10 µM in [5]. Also, the AC50 on Motilin receptor was > 10 µM; in assay [6], > 30 µM.

On to `C#C[C@]1(O)CC[C@H]2[C@@H]3CCC4=Cc5oncc5C[C@]4(C)[C@H]3CC[C@@]21C` [DANAZOL], for which the AC50 is > 10 µM in [1]; > 10 µM in [2]; > 10 µM on Melanocortin receptor 3; > 30 µM in assay [7]; > 10 µM in assay [3]; > 30 µM in [4]. Further, the half-maximal activity concentration (AC50) (in assay [5]; on Motilin receptor; in [8]) was > 10 µM throughout.

With `NCC[C@H](O)C(=O)N[C@@H]1C[C@H](N)[C@@H](O[C@H]2O[C@H](CN)[C@@H](O)[C@H](O)[C@H]2O)[C@H](O)[C@H]1O[C@H]1O[C@H](CO)[C@@H](O)[C@H](N)[C@H]1O` [AMIKACIN], the half-maximal activity concentration (AC50) in [1] was > 10 µM; in assay [2], > 10 µM; on Melanocortin receptor 3, > 10 µM; in [7], > 30 µM; in [3] it was > 10 µM; in assay [5], > 10 µM. Moreover, the figures for the AC50 (on Motilin receptor; in assay [8]; in assay [6]) were > 10 µM, > 10 µM and > 30 µM, respectively.

With `Cn1c(=O)c2c(ncn2CC2OCCO2)n(C)c1=O` [DOXOFYLLINE], the concentration at half-maximal activity (AC50) (in assay [1]; in assay [2]; on Melanocortin receptor 3; in assay [7]; in [3]; in assay [4]) was > 30 µM in each case. The AC50 (in assay [5]; on Motilin receptor; in assay [8]; in assay [6]) was > 30 µM throughout.
